Measured values from patent US20070123546A1, “2-amino-7,8-dihydro-6H-pyrido[4,3-d]pyrimidin-5-ones” (Chiron Corporation, priority 2005, published 2007).

What follows are compounds tested against His-tagged N-terminal ATP binding domain (amino acid residues 9-236) of HSP90α (Homo sapiens, UniProt P07900) (assay: HSP90 inhibitor binding potency: TRF competition binding assay). Conditions: Table 3; competition with biotinylated radicicol.
In short: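 His-tagged HSP90α N-domain (residues 9-236) incubated 2 h at room temperature with biotinylated radicicol and increasing compound in 50 mM HEPES, 6 mM MgCl2, 20 mM KCl, 0.1% BSA. Bound tracer captured on streptavidin plates, detected with europium anti-His antibody by time-resolved fluorescence; IC50 derived.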

SMILES | IC50 [µM]
COc1cncc(-c2cc(F)ccc2[C@H]2Cc3nc(N)nc(C)c3C(=O)N2CC(C)C)n1 [Compound 154, (R)-2-Amino-7-[4-fluoro-2-(6-methoxy-pyrazin-2-yl)-phenyl]-6-isobutyl-4-methyl-7,8-dihydro-6H-pyrido[4,3-d]pyrimidin-5-one] | < 10
COc1cccc(-c2cc(F)ccc2[C@H]2Cc3nc(N)nc(C)c3C(=O)N2CC(C)C)n1 [Compound 155, (R)-2-Amino-7-[4-fluoro-2-(6-methoxy-pyridin-2-yl)-phenyl]-6-isobutyl-4-methyl-7,8-dihydro-6H-pyrido[4,3-d]pyrimidin-5-one] | < 10
COc1ncc(-c2cc(F)ccc2[C@H]2Cc3nc(N)nc(C)c3C(=O)N2CC(C)C)nc1OC [Compound 156, (R)-2-Amino-7-[2-(5,6-dimethoxy-pyrazin-2-yl)-4-fluoro-phenyl]-6-isobutyl-4-methyl-7,8-dihydro-6H-pyrido[4,3-d]pyrimidin-5-one] | < 10
Cc1nc(N)nc2c1C(=O)N(CC(C)C)[C@@H](c1ccc(F)cc1-c1cccnc1F)C2 [Compound 157, (R)-2-Amino-7-[4-fluoro-2-(2-fluoro-pyridin-3-yl)-phenyl]-6-isobutyl-4-methyl-7,8-dihydro-6H-pyrido[4,3-d]pyrimidin-5-one] | < 10
COc1ncccc1-c1cc(F)ccc1[C@H]1Cc2nc(N)nc(C)c2C(=O)N1CC(C)C [Compound 158, (R)-2-Amino-7-[4-fluoro-2-(2-methoxy-pyridin-3-yl)-phenyl]-isobutyl-4-methyl-7,8-dihydro-6H-pyrido[4,3-d]pyrimidin-5-one] | < 10
COc1ccncc1-c1cc(F)ccc1[C@H]1Cc2nc(N)nc(C)c2C(=O)N1CC(C)C [Compound 159, (R)-2-Amino-7-[4-fluoro-2-(4-methoxy-pyridin-3-yl)-phenyl]-6-isobutyl-4-methyl-7,8-dihydro-6H-pyrido[4,3-d]pyrimidin-5-one] | > 10
COc1cccc(-c2cc(F)ccc2[C@H]2Cc3nc(N)nc(C)c3C(=O)N2Cc2ccc(F)cc2)n1 [Compound 160, (R)-2-Amino-6-(4-fluoro-benzyl)-7-[4-fluoro-2-(6-methoxy-pyridin-2-yl)-phenyl]-4-methyl-7,8-dihydro-6H-pyrido[4,3-d]pyrimidin-5-one] | < 10
COc1cncc(-c2cc(F)ccc2[C@H]2Cc3nc(N)nc(C)c3C(=O)N2Cc2ccc(F)cc2)n1 [Compound 161, (R)-2-Amino-6-(4-fluoro-benzyl)-7-[4-fluoro-2-(6-methoxy-pyrazin-2-yl)-phenyl]-4-methyl-7,8-dihydro-6H-pyrido[4,3-d]pyrimidin-5-one] | < 10
COc1nc(-c2cc(F)ccc2[C@H]2Cc3nc(N)nc(C)c3C(=O)N2Cc2ccc(F)cc2)cnc1N [Compound 162, (R)-2-Amino-7-[2-(5-amino-6-methoxy-pyrazin-2-yl)-4-fluoro-phenyl]-6-(4-fluoro-benzyl)-4-methyl-7,8-dihydro-6H-pyrido[4,3-d]pyrimidin-5-one] | < 10
COc1nc(-c2cc(F)ccc2[C@H]2Cc3nc(N)nc(C)c3C(=O)N2CC(C)C)cnc1N [Compound 163, (R)-2-Amino-7-[2-(5-amino-6-methoxy-pyrazin-2-yl)-4-fluoro-phenyl]-6-isobutyl-4-methyl-7,8-dihydro-6H-pyrido[4,3-d]pyrimidin-5-one] | < 10
COc1cncc(-c2cc(F)ccc2[C@H]2Cc3nc(N)nc(C)c3C(=O)N2Cc2cccnc2)n1 [Compound 164, (R)-2-Amino-7-[4-fluoro-2-(6-methoxy-pyrazin-2-yl)-phenyl]-4-methyl-6-pyridin-3-ylmethyl-7,8-dihydro-6H-pyrido[4,3-d]pyrimidin-5-one] | < 10
Cc1nc(N)nc2c1C(=O)N(CCCNC(=O)OC(C)(C)C)[C@@H](c1ccc(F)cc1Br)C2 [Compound 165, {3-[(R)-2-Amino-7-(2-bromo-4-fluoro-phenyl)-4-methyl-5-oxo-7,8-dihydro-5H-pyrido[4,3-d]pyrimidm-6-yl]-propyl}-carbamic acid tert-butyl ester] | > 10
Cc1nc(N)nc2c1C(=O)N(CCCN)[C@@H](c1ccc(F)cc1Br)C2 [Compound 166, (R)-2-Amino-6-(3-amino-propyl)-7-(2-bromo-4-fluoro-phenyl)-4-methyl-7,8-dihydro-6H-pyrido[4,3-d]pyrimidin-5-one] | > 10
Cc1nc(N)nc2c1C(=O)N(CCCNC(=O)OC(C)(C)C)[C@@H](c1ccc(F)cc1-c1cccnc1)C2 [Compound 167, {3-[(R)-2-Amino-7-(4-fluoro-2-pyridin-3-yl-phenyl)-4-methyl-5-oxo-7,8-dihydro-5H-pyrido[4,3-d]pyrimidin-6-yl]-propyl}-carbamic acid tert-butyl ester] | < 10
Cc1nc(N)nc2c1C(=O)N(CCCN)[C@@H](c1ccc(F)cc1-c1cccnc1)C2 [Compound 168, (R)-2-Amino-6-(3-amino-pnlpropyl)-7-(4-fluoro-2-pyridin-3-yl-phenyl)-4-methyl-7,8-dihydro-6H-pyrido[4,3-d]pyrimidin-5-one] | < 10
Cc1nc(N)nc2c1C(=O)N(CCCNC(=O)OC(C)(C)C)[C@@H](c1ccc(F)cc1-c1cccnc1F)C2 [Compound 169, (3-{(R)-2-Amino-7-[4-fluoro-2-(2-fluoro-pyridin-3-yl)-phenyl]-4-methyl-5-oxo-7,8-dihydro-5H-pyrido[4,3-d]pyrimidin-6-yl}-propyl)-carbamic acid tert-butyl ester] | < 10
Cc1nc(N)nc2c1C(=O)N(CCCN)[C@@H](c1ccc(F)cc1-c1cccnc1F)C2 [Compound 170, (R)-2-Amino-6-(3-amino-propyl)-7-[4-fluoro-2-(2-fluoro-pyridin-3-yl)-phenyl]-4-methyl-7,8-dihydro-6H-pyrido[4,3-d]pyrimidin-5-one] | > 10
COc1cncc(-c2cc(F)ccc2[C@H]2Cc3nc(N)nc(C)c3C(=O)N2CCCN)n1 [Compound 171, (R)-2-Amino-6-(3-amino-propyl)-7-[4-fluoro-2-(6-methoxy-pyrazin-2-yl)-phenyl]-4-methyl-7,8-dihydro-6H-pyrido[4,3-d]pyrimidin-5-one] | < 10
COc1cccc(-c2scnc2[C@H]2Cc3nc(N)nc(C)c3C(=O)N2)n1 [Compound 172, (R)-2-Amino-7-[5-(6-methoxy-pyridin-2-yl)-thiazol-4-yl]-4-methyl-7,8-dihydro-6H-pyrido[4,3-d]pyrimidin-5-one] | < 10

Same assay, conditions: Table 4; competition with biotinylated radicicol

SMILES | IC50 [µM]
CCOc1nc(-c2cc(F)ccc2[C@H]2Cc3nc(N)nc(C)c3C(=O)N2)ncc1F [Compound 174, (R)-2-Amino-7-[2-(4-ethoxy-5-fluoro-pyrunidin-2-yl)-4-fluoro-phenyl]-4-methyl-7,8-dihydro-6H-pyrido[4,3-d]pyrimidin-5-one] | < 10
COc1cncc(-c2cc(F)ccc2[C@H]2Cc3nc(N)ncc3C(=O)N2)n1 [Compound 175, (R)-2-Amino-7-[4-fluoro-2-(6-methoxy-pyrazin-2-yl)-phenyl]-7,8-dihydro-6H-pyrido[4,3-d]pyrimidin-5-one] | < 10
COc1ccccc1-c1cc(F)ccc1[C@H]1Cc2nc(N)ncc2C(=O)N1 [Compound 176, (R)-2-Amino-7-(5-fluoro-2′-methoxy-biphenyl-2-yl)-7,8-dihydro-6H-pyrido[4,3-d]pyrimidm-5-one] | < 10
COc1ccc(F)cc1-c1cc(F)ccc1[C@H]1Cc2nc(N)ncc2C(=O)N1 [Compound 177, (R)-2-Amino-7-(5,5′-difluoro-2′-methoxy-biphenyl-2-yl)-7,8-dihydro-6H-pyrido[4,3-d]pyrimidin-5-one] | < 10
COc1cc(F)ccc1-c1cc(F)ccc1[C@H]1Cc2nc(N)ncc2C(=O)N1 [Compound 178] | < 10
COc1ccc(-c2cc(F)ccc2[C@H]2Cc3nc(N)ncc3C(=O)N2)cc1OC [Compound 179, (R)-2-Amino-7-(5-fluoro-3′,4′-dimethoxy-biphenyl-2-yl)-7,8-dihydro-6H-pyrido[4,3-d]pyrimidin-5-one] | ≥ 10
Cc1cccc(-c2cc(F)ccc2[C@H]2Cc3nc(N)ncc3C(=O)N2)c1 [Compound 180, (R)-2-Amino-7-(5-fluoro-3′-methyl-biphenyl-2-yl)-7,8-dihydro-6H-pyrido[4,3-d]pyrimidin-5-one] | < 10
Cc1ccccc1-c1cc(F)ccc1[C@H]1Cc2nc(N)ncc2C(=O)N1 [Compound 181, (R)-2-Amino-7-(5-fluoro-2′-methyl-biphenyl-2-yl)-7,8-dihydro-6H-pyrido[4,3-d]pyrimidin-5-one] | < 10
Cc1ccc(-c2cc(F)ccc2[C@H]2Cc3nc(N)ncc3C(=O)N2)cc1 [Compound 182, (R)-2-Amino-7-(5-fluoro-4′-methyl-biphenyl-2-yl)-7,8-dihydro-6H-pyrido[4,3-d]pyrimidin-5-one] | < 10
Cc1cc(F)ccc1-c1cc(F)ccc1[C@H]1Cc2nc(N)ncc2C(=O)N1 [Compound 183, (R)-2-Amino-7-(5,4′-difluoro-2′-methyl-biphenyl-2-yl)-7,8-fihydro-6H-pyrido[4,3-d]pyrimidm-5-one] | < 10
Cc1nc(N)nc2c1C(=O)N[C@@H](c1ccccc1Br)C2 [Compound 184, (R)-2-Amino-7-(2-bromo-phenyl)-4-methyl-7,8-dihydro-6H-pyrido[4,3-d]pyrimidin-5-one] | ≥ 10
COc1cnc(-c2cc(F)ccc2[C@H]2Cc3nc(N)nc(C)c3C(=O)N2)nc1OC [Compound 185, (R)-2-Amino-7-[2-(4,5-dimethoxy-pyrimidin-2-yl)-4-fluoro-phenyl]-4-methyl-7,8-dihydro-6H-pyrido[4,3-d]pyrimidin-5-one] | < 10
COc1cncc(-c2scnc2[C@H]2Cc3nc(N)nc(C)c3C(=O)N2)n1 [Compound 186, (R)-2-Amino-7-[5-(6-methoxy-pyrazin-2-yl)-thiazol-4-yl]-4-methyl-7,8-dihydro-6H-pyrido[4,3-d]pyrimidin-5-one] | < 10
CCOc1cccc(-c2cc(F)ccc2[C@H]2Cc3nc(N)nc(C)c3C(=O)N2)n1 [Compound 187, (R)-2-Amino-7-[2-(6-ethoxy-pyridin-2-yl)-4-fluoro-phenyl]-4-methyl-7,8-dihydro-6H-pyrido[4,3-d]pyrimidin-5-one] | < 10
